What follows are molecules tested against T1, thioredoxin reductase (TrxR) (Escherichia coli, UniProt P0A9P4) (assay: DTNB reduction kinetic assay with Trx and NADPH in lysates of treated E. coli DSM […] cells).
T1 construct: gene trxB
Format: cell-based

T1 sequence (P0A9P4 2-321): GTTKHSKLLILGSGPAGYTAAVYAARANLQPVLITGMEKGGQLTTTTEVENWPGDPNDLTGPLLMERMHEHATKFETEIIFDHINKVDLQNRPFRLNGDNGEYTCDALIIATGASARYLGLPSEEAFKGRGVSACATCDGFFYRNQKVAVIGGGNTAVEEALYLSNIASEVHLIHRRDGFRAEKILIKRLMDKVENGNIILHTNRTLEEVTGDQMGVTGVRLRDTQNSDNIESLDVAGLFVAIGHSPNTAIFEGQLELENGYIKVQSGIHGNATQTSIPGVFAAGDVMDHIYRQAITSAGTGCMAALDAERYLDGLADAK

Row | Structure (SMILES) | IC50
1 | CC(C)n1[c]([Ag-][I])[n+](Cc2ccccn2)c2ccccc21 [1-I] | ~6 µM
2 | COCCn1[c]([Ag-][I])[n+](Cc2ccccn2)c2ccccc21 [2-I] | ~6 µM
3 | COCCn1[c]([Ag-][Cl])[n+](Cc2ccccn2)c2ccccc21 [2-Cl] | ~11 µM
4 | CC(C)n1[c]([Ag-][Cl])[n+](Cc2ccccn2)c2ccccc21 [1-Cl] | ~11 µM

Reference: PMC11744769, “Modulation of the mechanism of action of antibacterial silver N-heterocyclic carbene complexes by variation of the halide ligand” (RSC Advances, 2025)
